Results on nine compounds are retold here after PubChem BioAssay (NCI).

Some test systems named below: UACC-62 melanoma; PC-3 prostate; MALME-3M melanoma; OVCAR-8 ovarian; UACC-257 melanoma; EKVX NSCLC; HT29 colon; SK-MEL-2 melanoma; MDA-MB-231 breast; NCI-H226 lung.
Assay in all cases: NCI tumour cell line growth inhibition, 48 h

Values joined by “and” are separate entries in the source; they are usually repeats but may differ in a detail not shown here. Equal entries are not always repeated.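 Test compounds were applied to cells in 96-well plates for 48 hours at 5 doses. At the GI50, growth is halved. TGI: total growth inhibition.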

Turning to `COc1ccc(-c2cc(-c3cc(OC)c(OC)c(OC)c3)c(C#N)c(N3CCOCC3)n2)cc1O`, the GI50 is 60.2 µM with UACC-62 melanoma; 3.6 µM in the test with PC-3 prostate; greater than 100 µM in the test with MALME-3M melanoma; 6.11 µM with OVCAR-8 ovarian; 38.4 µM in the test with UACC-257 melanoma; 8.95 µM in the test on EKVX NSCLC. Moreover, the GI50 is 10.3 µM in the test with HT29 colon, 13.5 µM in the test on SK-MEL-2 melanoma, 2.41 µM in the test on MDA-MB-231 breast and greater than 100 µM with NCI-H226 lung. In addition, the TGI with UACC-62 melanoma, in the test with PC-3 prostate, with MALME-3M melanoma, in the test with OVCAR-8 ovarian, in the test with UACC-257 melanoma and in the test with EKVX NSCLC was greater than 100 µM each time. Moreover, the TGI is greater than 100 µM in the test on HT29 colon, greater than 100 µM with SK-MEL-2 melanoma, greater than 93.3 µM in the test with MDA-MB-231 breast and greater than 100 µM with NCI-H226 lung.

On to `NC(=O)/C=C/NC(=O)/C=N\O`, for which the TGI in the test on UACC-62 melanoma, in the test with PC-3 prostate, in the test with MALME-3M melanoma, in the test on OVCAR-8 ovarian, with UACC-257 melanoma and in the test with EKVX NSCLC was greater than 100 µM in each case. The TGI in the test with HT29 colon, with MDA-MB-231 breast and in the test with NCI-H226 lung was greater than 100 µM throughout.

With `CCCCCC/C=C\CCCCCCCCCC1=CC(=O)C=C(OC)C1=O`, the TGI in the test with UACC-62 melanoma is 16.9 µM; in the test with PC-3 prostate, 11 µM; in the test on MALME-3M melanoma, 29.4 µM; in the test with OVCAR-8 ovarian, 12.5 µM; with UACC-257 melanoma it was 9.11 µM; with EKVX NSCLC, 12.5 µM. The TGI with HT29 colon is 11.8 µM; in the test with SK-MEL-2 melanoma, 18.3 µM; with MDA-MB-231 breast, 18.4 µM; in the test on NCI-H226 lung, 11.1 µM.

As to `COc1ccc(C(=O)/C=C/c2ccc(OCC(=O)N3CCN(c4ccccc4)CC3)cc2)cc1`, the TGI with UACC-62 melanoma is greater than 100 µM; in the test on PC-3 prostate it was greater than 100 µM; with MALME-3M melanoma, greater than 100 µM; with OVCAR-8 ovarian, greater than 100 µM; with UACC-257 melanoma, greater than 100 µM; in the test with EKVX NSCLC, greater than 90.4 µM. For the same compound, the TGI is greater than 100 µM in the test with HT29 colon, greater than 100 µM in the test on SK-MEL-2 melanoma, greater than 53.2 µM in the test on MDA-MB-231 breast and greater than 100 µM in the test with NCI-H226 lung.

For `COc1cnc2c(c1)C(=O)c1c-2n(CCCN2CCCC2)c(=O)c2cc(F)ccc12`, the GI50 in the test on UACC-62 melanoma was 0.471 µM; in the test on PC-3 prostate, 0.42 µM; in the test on MALME-3M melanoma, 0.452 µM; with OVCAR-8 ovarian, 0.206 µM; in the test with UACC-257 melanoma it was 0.396 µM; in the test with EKVX NSCLC, 0.407 µM. For the same compound, the GI50 with HT29 colon was 0.209 µM; in the test with SK-MEL-2 melanoma, 1.39 µM; in the test on MDA-MB-231 breast, 0.926 µM; with NCI-H226 lung, 0.164 µM. Moreover, the TGI in the test with UACC-62 melanoma came to 2.21 µM; in the test on PC-3 prostate it was 12.8 µM; in the test on MALME-3M melanoma it was 1.73 µM; in the test with OVCAR-8 ovarian, 1.05 µM; in the test with UACC-257 melanoma, 2.2 µM; in the test with EKVX NSCLC it was 4.24 µM. The TGI is 1.1 µM in the test with HT29 colon, 10.4 µM in the test on SK-MEL-2 melanoma, 2.96 µM in the test on MDA-MB-231 breast and 0.382 µM with NCI-H226 lung.

For `COc1cc2nc3cc([N+](=O)[O-])ccc3c(NCCCNCC(C)(C)O)c2cc1OC`, the GI50 is 0.214 µM in the test with UACC-62 melanoma; 0.322 µM with PC-3 prostate; 0.315 µM with MALME-3M melanoma; 0.304 µM in the test with OVCAR-8 ovarian; 1.62 µM in the test with UACC-257 melanoma; 1.21 µM in the test on EKVX NSCLC. Moreover, the GI50 in the test on HT29 colon is 0.212 µM; in the test on SK-MEL-2 melanoma it was 0.234 µM; in the test with MDA-MB-231 breast it was 0.222 µM; in the test with NCI-H226 lung, 0.771 µM. The TGI amounted to 0.58 µM in the test on UACC-62 melanoma; 1.11 µM with PC-3 prostate; 0.872 µM in the test on MALME-3M melanoma; 1.82 µM in the test with OVCAR-8 ovarian; 3.1 µM in the test on UACC-257 melanoma; 3.97 µM in the test on EKVX NSCLC. Moreover, the TGI came out at 0.586 µM with HT29 colon, 0.518 µM in the test on SK-MEL-2 melanoma, 0.9 µM in the test with MDA-MB-231 breast and 2.89 µM with NCI-H226 lung.

`O=C(O)c1ccc2c(c1)nc(Nc1cccc(Cl)c1)c1ccncc12`: the GI50 in the test on UACC-62 melanoma is 1.82 µM; with PC-3 prostate, 2.88 µM and 3.57 µM; with MALME-3M melanoma, 1.91 µM and 2.68 µM; in the test on OVCAR-8 ovarian it was 4.1 µM and 3.3 µM; in the test on UACC-257 melanoma, 3.88 µM and 2.68 µM; with EKVX NSCLC it was 3.46 µM and 4.04 µM. Besides, the GI50 was 5.48 µM and 6.26 µM in the test with HT29 colon; 2.4 µM and 1.86 µM in the test with SK-MEL-2 melanoma; 4.18 µM and 3.57 µM in the test with MDA-MB-231 breast; 1.77 µM and 2.77 µM with NCI-H226 lung. The TGI with UACC-62 melanoma is 6.16 µM; in the test with PC-3 prostate, 22 µM and > 10 µM; with MALME-3M melanoma, 7.71 µM and > 10 µM; in the test with OVCAR-8 ovarian it was greater than 75.4 µM; in the test with UACC-257 melanoma, 20.3 µM and > 10 µM; in the test on EKVX NSCLC, 23.9 µM and > 10 µM. In addition, the TGI in the test on HT29 colon was 33.3 µM and > 10 µM; in the test on SK-MEL-2 melanoma, 7.11 µM and 5.59 µM; in the test with MDA-MB-231 breast, 34.2 µM and > 10 µM; with NCI-H226 lung, greater than 20.3 µM.

Regarding `O=C(CCCCCCSc1nc(-c2ccc(Cl)cc2)cc(-c2ccc(Cl)cc2)n1)NO`, the GI50 is 1.26 µM in the test with UACC-62 melanoma; 1.54 µM in the test on PC-3 prostate; 1.16 µM in the test with MALME-3M melanoma; 1.43 µM with OVCAR-8 ovarian; 2.15 µM in the test with UACC-257 melanoma; 2.6 µM in the test with EKVX NSCLC. Besides, the GI50 with HT29 colon was 1.41 µM; with SK-MEL-2 melanoma, 4.02 µM; with MDA-MB-231 breast it was 2.15 µM; in the test on NCI-H226 lung it was 1.71 µM. Moreover, the TGI in the test on UACC-62 melanoma was 4.18 µM; in the test with PC-3 prostate it was 16.3 µM; with MALME-3M melanoma, 4.45 µM; with OVCAR-8 ovarian it was 8.1 µM; in the test with UACC-257 melanoma, greater than 50 µM; in the test with EKVX NSCLC it was 39.6 µM. The TGI was 7.46 µM with HT29 colon, 18.4 µM in the test with SK-MEL-2 melanoma, 13.3 µM in the test on MDA-MB-231 breast and 17.5 µM in the test on NCI-H226 lung.

For `CCc1nc(N)nc(N)c1-c1ccc(NCCc2ccccc2)c([N+](=O)[O-])c1`, the TGI in the test on UACC-62 melanoma is 15.8 µM; with PC-3 prostate, greater than 71.6 µM; with MALME-3M melanoma it was 9.74 µM; in the test with OVCAR-8 ovarian, 89 µM; with UACC-257 melanoma, 26.2 µM; in the test on EKVX NSCLC, 54 µM. Further, the TGI in the test on HT29 colon is 22.4 µM; in the test on SK-MEL-2 melanoma it was 36.7 µM; in the test with MDA-MB-231 breast, greater than 88.9 µM; in the test with NCI-H226 lung, greater than 69.7 µM.
